The values below come from patent publication US3937830A, “5-Pivaloyloxy-5-(1-phenylethyl) barbituric acid, analgetic composition and method based thereon” (The Kendall Company, priority 1974, dated 1976).

Broadly, the LD50 is the dose expected to kill half of the subjects tested. Usually ED50 stands for the midpoint of the dose-response relation.

A short description of data set [1]: Acute oral toxicity in mice. Further details: species or system adult albino male mice (Charles River strain). Particulars: mouse, in vivo, 95% limits in parentheses. The protocol: (§1) All tests were conducted on adult albino male mice (Charles River strain); the dosage consisted of the active agent suspended in 10% aqueous acacia and was administered orally and/or subcutaneously as indicated.
(§2) Acute oral toxicity was determined in the conventional manner. The results were expressed as LD50, the dose required to produce death in 50% of the animals treated, determined graphically, with the 95% limits shown in parentheses.

A short description of data set [2]: Hot-plate analgetic activity (Eddy and Leimbach, modified). Type of data set: in vivo, adult albino male mice (Charles River strain). The conditions noted are these: for ED50: Mus musculus, mice. The protocol:
as §1
Two established procedures were employed to determine analgetic activity. The method described by Eddy, N. B., and Leimbach, D., J. Pharmacol. Exptl. Therap. 107, 385 (1953) was followed, with the following modifications, in the first procedure. Mice are pretested by placing them individually on the cleaned surface of a copper water bath, the temperature of which is maintained at 54°-55°C. The reaction time of this noxious thermal stimulus is the time in seconds required for either licking of the paws or jumping, such that all four paws leave the surface of the plate. The drug is then administered orally or subcutaneously, generally at five dosage levels, (10 mice per dosage level) and the reaction times are redetermined at intervals of 1/2 hour, 1 hour, and 2 hours; the time of peak activity is the time at which the greatest number of animals is protected. From the pretreatment reaction times the mean and standard deviations are computed. The cut-off time is taken to be the mean reaction time plus 2 standard deviation units. Reaction times equal to or exceeding this cut-off time are considered to represent analgetic responses. The dosage required to produce an analgetic response in 50% of the animals (ED50 and 95% limits) is computed graphically.

Data set [3] in a line: Phenyl-p-quinone writhing (Siegmund). Type of data set: in vivo, adult albino male mice (Charles River strain). The conditions noted are these: oral, mice, not dose-related. The protocol: as §1
In the second procedure, the method of Siegmund, E., et al. reported in Proc. Soc. Exptl. Biol. and Med. 95, 729, (1957) was generally followed. The method is based on the antagonism by both non-narcotic and narcotic analgetics of a syndrome induced in mice following intraperitoneal injection of phenyl-p-quinone. The syndrome is characterized by intermittent contractions of the abdomen, twisting and turning of the trunk, and extension of the hind legs, beginning 3 to 10 minutes after the injection and persisting for more than one hour. The test drug is administered orally at four to five dosage levels. At the time of peak activity, 0.25 ml. of a 0.02 per cent solution of phenyl-p-quinone in 5 per cent (aqueous) ethyl alcohol is injected intraperitoneally. Inhibition of the syndrome is considered an analgetic response.

Data set [4] in a line: Therapeutic index (LD50 divided by ED50). Further details: species or system adult albino male mice (Charles River strain). Particulars: mouse, in vivo; oral LD50 / oral hot-plate ED50, mice. As for the experimental part:
By therapeutic index is meant the LD50 of a compound divided by its ED50, or the dose required to kill one-half of the test animals divided by the dose required to produce the desired therapeutic effect in one-half of the test animals. It will be apparent that the larger the therapeutic index, the greater the margin of safety and the more desirable the drug.
as §1, §2
Two established procedures were employed to determine analgetic activity. The method described by Eddy, N. B., and Leimbach, D., J. Pharmacol. Exptl. Therap. 107, 385 (1953) was followed, with the following modifications, in the first procedure. Mice are pretested by placing them individually on the cleaned surface of a copper water bath, the temperature of which is maintained at 54°-55°C. The reaction time of this noxious thermal stimulus is the time in seconds required for either licking of the paws or jumping, such that all four paws leave the surface of the plate. […]

Like-named read-outs stand apart in the source and are kept apart here.

`CC(c1ccccc1)C1(OC(=O)C(C)(C)C)C(=O)NC(=O)NC1=O` (centres unmarked) [5-pivaloyloxy-5-(1-phenylethyl) barbituric acid]: in data set [1], the LD50 amounted to 690 mg/kg. Further, the ED50 in data set [2] (sc, subcutaneous, not dose-related, read-out: Hot-Plate ED50 (subcutaneous)) is 40 to 80 mg/kg; in data set [2] (oral, read-out: Hot-Plate ED50 (oral)) it was less than 3.1 mg/kg. In addition, the “Time of Peak Activity” value in data set [2] (time at which the greatest number of animals is protected) was 1/2. In addition, the “Phenyl-p-quinone Writhing, % active” value in data set [3] (100 mg/kg) was 26%; in data set [3] (200 mg/kg) it was 30%; in data set [3] (400 mg/kg) it was 10%. Also, the selectivity ratio in data set [4] was greater than 230.
